{"source": "PubChem BioAssay AID2060900", "about": "(Molecular Pharmacology Branch, DTP, NCI, 2025);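 note: compound exposure lasted seven days before the viability read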;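 for viability, T/C: spheroids also contain HUVEC endothelial cells and mesenchymal stem cells as stroma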", "test_system": "521955-158-R2-J5-PDC complex spheroids, viability", "experiment": "Anticancer human tumor 521955-158-R2-J5-PDC patient-derived pancreatic carcinoma cell line growth inhibition [RAS]", "settings": "for IC50: curve of first compound; for viability, T/C: stronger effect = lower value", "in_short": "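Tumour cells grown as complex spheroids with HUVEC endothelial cells and mesenchymal stem cells, treated with RAS pathway inhibitor combinations. Each agent spans half-log steps from near clinical Cmax, or 10 microM where Cmax is unknown.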"}
{"smiles": "C=CC(=O)N1CCN(c2nc(OCC3CCCN3C)nc3c(F)c(-c4nc(N)cc(C)c4C(F)(F)F)c(Cl)cc23)C(C)C1", "note": "(centres undefined) + CCn1c(-c2cc(N3CCN(C)CC3)cnc2C(C)OC)c2c3cc(ccc31)-c1csc(n1)CC(NC(=O)C1CC1C)C(=O)N1CCCC(N1)C(=O)OCC(C)(C)C2", "values": [{"measurement": "IC50", "setting": "second compound 0.000949 µM", "result": "< 3.16", "unit": "nM"}, {"measurement": "IC50", "setting": "second compound 0.003 µM", "result": "< 3.16", "unit": "nM"}, {"measurement": "IC50", "setting": "second compound 0.00949 µM", "result": "< 3.16", "unit": "nM"}, {"measurement": "IC50", "setting": "second compound 0.03 µM", "result": "< 3.16", "unit": "nM"}, {"measurement": "IC50", "setting": "second compound 0.0949 µM", "result": "< 3.16", "unit": "nM"}, {"measurement": "IC50", "setting": "second compound 0.3 µM", "result": "< 3.16", "unit": "nM"}, {"measurement": "viability, T/C", "setting": "second compound 0.000949 µM, first compound 0.00316 µM", "result": 42.5, "unit": "%"}, {"measurement": "viability, T/C", "setting": "second compound 0.000949 µM, first compound 0.01 µM", "result": 43.1, "unit": "%"}, {"measurement": "viability, T/C", "setting": "second compound 0.000949 µM, first compound 0.0316 µM", "result": 45.9, "unit": "%"}, {"measurement": "viability, T/C", "setting": "second compound 0.000949 µM, first compound 0.1 µM", "result": 45.9, "unit": "%"}, {"measurement": "viability, T/C", "setting": "second compound 0.000949 µM, first compound 0.316 µM", "result": 57.7, "unit": "%"}, {"measurement": "viability, T/C", "setting": "second compound 0.000949 µM, first compound 1 µM", "result": 41, "unit": "%"}, {"measurement": "viability, T/C", "setting": "second compound 0.003 µM, first compound 0.00316 µM", "result": 39.4, "unit": "%"}, {"measurement": "viability, T/C", "setting": "second compound 0.003 µM, first compound 0.01 µM", "result": 36.5, "unit": "%"}, {"measurement": "viability, T/C", "setting": "second compound 0.003 µM, first compound 0.0316 µM", "result": 46.7, "unit": "%"}, {"measurement": "viability, T/C", "setting": "second compound 0.003 µM, first compound 0.1 µM", "result": 49.3, "unit": "%"}, {"measurement": "viability, T/C", "setting": "second compound 0.003 µM, first compound 0.316 µM", "result": 39.9, "unit": "%"}, {"measurement": "viability, T/C", "setting": "second compound 0.003 µM, first compound 1 µM", "result": 49.5, "unit": "%"}, {"measurement": "viability, T/C", "setting": "second compound 0.00949 µM, first compound 0.00316 µM", "result": 35, "unit": "%"}, {"measurement": "viability, T/C", "setting": "second compound 0.00949 µM, first compound 0.01 µM", "result": 35.4, "unit": "%"}, {"measurement": "viability, T/C", "setting": "second compound 0.00949 µM, first compound 0.0316 µM", "result": 44.3, "unit": "%"}, {"measurement": "viability, T/C", "setting": "second compound 0.00949 µM, first compound 0.1 µM", "result": 29.6, "unit": "%"}, {"measurement": "viability, T/C", "setting": "second compound 0.00949 µM, first compound 0.316 µM", "result": 42, "unit": "%"}, {"measurement": "viability, T/C", "setting": "second compound 0.00949 µM, first compound 1 µM", "result": 36.1, "unit": "%"}, {"measurement": "viability, T/C", "setting": "second compound 0.03 µM, first compound 0.00316 µM", "result": 17.1, "unit": "%"}, {"measurement": "viability, T/C", "setting": "second compound 0.03 µM, first compound 0.01 µM", "result": 19, "unit": "%"}, {"measurement": "viability, T/C", "setting": "second compound 0.03 µM, first compound 0.0316 µM", "result": 22.6, "unit": "%"}, {"measurement": "viability, T/C", "setting": "second compound 0.03 µM, first compound 0.1 µM", "result": 20.2, "unit": "%"}, {"measurement": "viability, T/C", "setting": "second compound 0.03 µM, first compound 0.316 µM", "result": 30.7, "unit": "%"}, {"measurement": "viability, T/C", "setting": "second compound 0.03 µM, first compound 1 µM", "result": 18.6, "unit": "%"}, {"measurement": "viability, T/C", "setting": "second compound 0.0949 µM, first compound 0.00316 µM", "result": 16.1, "unit": "%"}, {"measurement": "viability, T/C", "setting": "second compound 0.0949 µM, first compound 0.01 µM", "result": 11.4, "unit": "%"}, {"measurement": "viability, T/C", "setting": "second compound 0.0949 µM, first compound 0.0316 µM", "result": 11.9, "unit": "%"}, {"measurement": "viability, T/C", "setting": "second compound 0.0949 µM, first compound 0.1 µM", "result": 13.9, "unit": "%"}, {"measurement": "viability, T/C", "setting": "second compound 0.0949 µM, first compound 0.316 µM", "result": 15.1, "unit": "%"}, {"measurement": "viability, T/C", "setting": "second compound 0.0949 µM, first compound 1 µM", "result": 11.9, "unit": "%"}, {"measurement": "viability, T/C", "setting": "second compound 0.3 µM, first compound 0.00316 µM", "result": 10.8, "unit": "%"}, {"measurement": "viability, T/C", "setting": "second compound 0.3 µM, first compound 0.01 µM", "result": 10.2, "unit": "%"}, {"measurement": "viability, T/C", "setting": "second compound 0.3 µM, first compound 0.0316 µM", "result": 11.3, "unit": "%"}, {"measurement": "viability, T/C", "setting": "second compound 0.3 µM, first compound 0.1 µM", "result": 12.5, "unit": "%"}, {"measurement": "viability, T/C", "setting": "second compound 0.3 µM, first compound 0.316 µM", "result": 15.9, "unit": "%"}, {"measurement": "viability, T/C", "setting": "second compound 0.3 µM, first compound 1 µM", "result": 9.71, "unit": "%"}]}
{"smiles": "CC1(C)CCC(Nc2ncc(C(F)(F)F)c(-c3c[nH]c4c(P(C)(C)=O)c(C#N)ccc34)n2)CN1", "note": "(centres undefined) + CCn1c(-c2cc(N3CCN(C)CC3)cnc2C(C)OC)c2c3cc(ccc31)-c1csc(n1)CC(NC(=O)C1CC1C)C(=O)N1CCCC(N1)C(=O)OCC(C)(C)C2", "values": [{"measurement": "IC50", "setting": "second compound 0.000949 µM", "result": "< 0.949", "unit": "nM"}, {"measurement": "IC50", "setting": "second compound 0.003 µM", "result": "< 0.949", "unit": "nM"}, {"measurement": "IC50", "setting": "second compound 0.00949 µM", "result": "< 0.949", "unit": "nM"}, {"measurement": "IC50", "setting": "second compound 0.03 µM", "result": "< 0.949", "unit": "nM"}, {"measurement": "IC50", "setting": "second compound 0.0949 µM", "result": "< 0.949", "unit": "nM"}, {"measurement": "IC50", "setting": "second compound 0.3 µM", "result": "< 0.949", "unit": "nM"}, {"measurement": "viability, T/C", "setting": "second compound 0.000949 µM, first compound 0.000949 µM", "result": 33.7, "unit": "%"}, {"measurement": "viability, T/C", "setting": "second compound 0.000949 µM, first compound 0.003 µM", "result": 32, "unit": "%"}, {"measurement": "viability, T/C", "setting": "second compound 0.000949 µM, first compound 0.00949 µM", "result": 33.4, "unit": "%"}, {"measurement": "viability, T/C", "setting": "second compound 0.000949 µM, first compound 0.03 µM", "result": 30.9, "unit": "%"}, {"measurement": "viability, T/C", "setting": "second compound 0.000949 µM, first compound 0.0949 µM", "result": 39.5, "unit": "%"}, {"measurement": "viability, T/C", "setting": "second compound 0.000949 µM, first compound 0.3 µM", "result": 40.5, "unit": "%"}, {"measurement": "viability, T/C", "setting": "second compound 0.003 µM, first compound 0.000949 µM", "result": 34.6, "unit": "%"}, {"measurement": "viability, T/C", "setting": "second compound 0.003 µM, first compound 0.003 µM", "result": 26.5, "unit": "%"}, {"measurement": "viability, T/C", "setting": "second compound 0.003 µM, first compound 0.00949 µM", "result": 18, "unit": "%"}, {"measurement": "viability, T/C", "setting": "second compound 0.003 µM, first compound 0.03 µM", "result": 23.1, "unit": "%"}, {"measurement": "viability, T/C", "setting": "second compound 0.003 µM, first compound 0.0949 µM", "result": 23.4, "unit": "%"}, {"measurement": "viability, T/C", "setting": "second compound 0.003 µM, first compound 0.3 µM", "result": 31.7, "unit": "%"}, {"measurement": "viability, T/C", "setting": "second compound 0.00949 µM, first compound 0.000949 µM", "result": 24.2, "unit": "%"}, {"measurement": "viability, T/C", "setting": "second compound 0.00949 µM, first compound 0.003 µM", "result": 23.6, "unit": "%"}, {"measurement": "viability, T/C", "setting": "second compound 0.00949 µM, first compound 0.00949 µM", "result": 20.4, "unit": "%"}, {"measurement": "viability, T/C", "setting": "second compound 0.00949 µM, first compound 0.03 µM", "result": 16.6, "unit": "%"}, {"measurement": "viability, T/C", "setting": "second compound 0.00949 µM, first compound 0.0949 µM", "result": 15.1, "unit": "%"}, {"measurement": "viability, T/C", "setting": "second compound 0.00949 µM, first compound 0.3 µM", "result": 19.4, "unit": "%"}, {"measurement": "viability, T/C", "setting": "second compound 0.03 µM, first compound 0.000949 µM", "result": 12.3, "unit": "%"}, {"measurement": "viability, T/C", "setting": "second compound 0.03 µM, first compound 0.003 µM", "result": 17.6, "unit": "%"}, {"measurement": "viability, T/C", "setting": "second compound 0.03 µM, first compound 0.00949 µM", "result": 9.79, "unit": "%"}, {"measurement": "viability, T/C", "setting": "second compound 0.03 µM, first compound 0.03 µM", "result": 7.37, "unit": "%"}, {"measurement": "viability, T/C", "setting": "second compound 0.03 µM, first compound 0.0949 µM", "result": 8.43, "unit": "%"}, {"measurement": "viability, T/C", "setting": "second compound 0.03 µM, first compound 0.3 µM", "result": 7.63, "unit": "%"}, {"measurement": "viability, T/C", "setting": "second compound 0.0949 µM, first compound 0.000949 µM", "result": 8.04, "unit": "%"}, {"measurement": "viability, T/C", "setting": "second compound 0.0949 µM, first compound 0.003 µM", "result": 7.4, "unit": "%"}, {"measurement": "viability, T/C", "setting": "second compound 0.0949 µM, first compound 0.00949 µM", "result": 8.22, "unit": "%"}, {"measurement": "viability, T/C", "setting": "second compound 0.0949 µM, first compound 0.03 µM", "result": 5.8, "unit": "%"}, {"measurement": "viability, T/C", "setting": "second compound 0.0949 µM, first compound 0.0949 µM", "result": 4.67, "unit": "%"}, {"measurement": "viability, T/C", "setting": "second compound 0.0949 µM, first compound 0.3 µM", "result": 4.29, "unit": "%"}, {"measurement": "viability, T/C", "setting": "second compound 0.3 µM, first compound 0.000949 µM", "result": 8.35, "unit": "%"}, {"measurement": "viability, T/C", "setting": "second compound 0.3 µM, first compound 0.003 µM", "result": 7.65, "unit": "%"}, {"measurement": "viability, T/C", "setting": "second compound 0.3 µM, first compound 0.00949 µM", "result": 4.3, "unit": "%"}, {"measurement": "viability, T/C", "setting": "second compound 0.3 µM, first compound 0.03 µM", "result": 4.81, "unit": "%"}, {"measurement": "viability, T/C", "setting": "second compound 0.3 µM, first compound 0.0949 µM", "result": 3.91, "unit": "%"}, {"measurement": "viability, T/C", "setting": "second compound 0.3 µM, first compound 0.3 µM", "result": 5.79, "unit": "%"}]}
